Assay results from publication PMC6965684, “Characterization of binding, functional activity, and contractile responses of the selective 5‐HT1F receptor agonist lasmiditan” (British Journal of Pharmacology, 2019).
pEC50, pIC50, pKi: −log10 of the molar value. Where a name gives a salt, the structure may show the parent alone. Read-outs that look alike come from different tables or passages of the source.

Experiments:
5-HT2A receptor [1] = target: T1, 5-HT2A receptor (Homo sapiens, UniProt P28223); assay: biochemical; format: CHO-K1 membranes; design: radioligand competition binding on cell membranes, filtration and TopCount scintillation counting; conditions: for IC50 / Ki: radioligand displacement; for IC50: read-out: 5‐HT2A / pIC50 (converted); for Ki: read-out: 5‐HT2A / pKi (converted)
T1 construct: gene HTR2A; full-length human recombinant receptor in CHO-K1 cells (Ogeda); crude membranes
T1 sequence (P28223 whole entry): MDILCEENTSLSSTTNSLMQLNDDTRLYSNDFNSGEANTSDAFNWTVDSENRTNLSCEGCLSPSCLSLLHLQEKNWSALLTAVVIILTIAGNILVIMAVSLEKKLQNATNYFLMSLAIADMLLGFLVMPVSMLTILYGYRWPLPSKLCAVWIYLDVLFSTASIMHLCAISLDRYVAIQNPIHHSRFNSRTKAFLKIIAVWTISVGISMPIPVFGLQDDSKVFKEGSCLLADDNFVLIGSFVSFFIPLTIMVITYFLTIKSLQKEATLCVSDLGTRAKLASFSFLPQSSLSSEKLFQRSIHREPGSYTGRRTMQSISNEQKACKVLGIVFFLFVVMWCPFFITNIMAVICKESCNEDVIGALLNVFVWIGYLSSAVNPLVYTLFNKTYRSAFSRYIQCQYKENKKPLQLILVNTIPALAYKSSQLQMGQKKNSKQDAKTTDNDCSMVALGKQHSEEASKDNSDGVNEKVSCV
Experimental: Competition binding was performed in duplicate in the wells of a 96‐well plate containing binding buffer (optimized for each receptor), cell membrane extracts (approximately 20,000 cells distributed in the 96‐well plate), radiotracer, and test agonist. Non‐specific binding was determined by co‐incubation with 200‐fold excess of competitor. Cells were incubated and exposed to varying concentrations (1 pM to 10 μM) of a range of displacer agonists (see below). The samples were incubated in a final volume of 0.1 ml and then filtered over Unifilter plates (Perkin Elmer, Massachusetts, USA) pretreated for 2 hr to limit tracer non‐specific binding. Filters were washed five times with 0.5 ml of ice‐cold washing buffer (tris 50 mM pH 7.4) and 50 μl of Microscint 20 (Perkin Elmer) were added to each filter. The plates were incubated 15 min at room temperature on an orbital shaker and then counted with a TopCount™ (Perkin Elmer) for 1 min per well. […] Additionally, the reference values obtained were compared to historical values obtained from the same receptor and used to validate the experimental session. […] For the new assays developed in this study (i.e., 5‐ht1E receptor), the two independent pIC50 determined must be concordant with a 1 log unit interval for the assays to be validated. […]

5-HT2A receptor [2] = target: T1, 5-HT2A receptor; assay: cell-based; design: species or system CHO-K1; IPOne HTRF agonist assay, IP1 accumulation in adherent transfected cells; conditions: for EC50: IP, read-out: 5‐HT2A / IP (converted)
Experimental: The assay was performed on adherent cells. For agonist testing, the medium was removed and 20 μl of assay buffer plus 20 μl of the studied agonist or the reference agonist were added in each well. The plate was incubated for 60 min at 37°C with 5% CO2. IP1‐D2 reagent and anti‐IP1 cryptate reagents were dispensed in the wells, and IP1 concentrations were then measured following the manufacturer instructions (IPOne HTRF assay kit; Cisbio International, Codolet, France). In brief, increasing concentrations of agonists were added to stably transfected cells in buffer in an Optiplate (PerkinElmer Life Sciences). The plates were incubated, and cells were then lysed by the addition of HTRF reagents (IP1‐D2 reagent and anti‐IP1 cryptate reagents) and diluted in lysis buffer, followed by incubation at room temperature. […] Additionally, the reference values obtained were compared to historical values obtained from the same receptor and used to validate the experimental session. […] For the new assays developed in this study (i.e., 5‐ht1E receptor), the two independent pIC50 determined must be concordant with a 1 log unit interval for the assays to be validated. […]

5-HT1D receptor = target: T2, 5-HT1D receptor (Homo sapiens, UniProt P28221); assay: radioligand competition, CHO-K1 membranes; format: binding; conditions: radioligand listed in supplement Table S1
T2 construct: gene HTR1D; full-length human recombinant receptor in CHO-K1 cells (Ogeda); crude membranes
T2 sequence (P28221 whole entry): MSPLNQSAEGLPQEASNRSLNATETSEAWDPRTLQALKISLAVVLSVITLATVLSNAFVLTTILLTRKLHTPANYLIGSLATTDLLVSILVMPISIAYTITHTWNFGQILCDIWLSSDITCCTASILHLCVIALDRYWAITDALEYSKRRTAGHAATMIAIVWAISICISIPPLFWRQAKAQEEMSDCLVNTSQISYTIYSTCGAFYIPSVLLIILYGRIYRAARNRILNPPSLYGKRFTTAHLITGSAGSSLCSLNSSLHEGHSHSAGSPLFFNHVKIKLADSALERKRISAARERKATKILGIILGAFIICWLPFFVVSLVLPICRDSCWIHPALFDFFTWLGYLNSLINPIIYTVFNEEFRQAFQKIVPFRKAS
Text: radioligand competition, CHO-K1 membranes on 5-HT1D receptor

5-HT1F receptor [3] = target: T3, 5-HT1F receptor (Homo sapiens, UniProt P30939); assay: cAMP HTRF, stably transfected CHO-K1 cells; format: cell-based; conditions: agonist mode; inhibition of stimulated cAMP, […] min, room temperature
T3 construct: gene HTR1F; full-length human recombinant receptor in CHO-K1 cells (Ogeda)
T3 sequence (P30939 1-366): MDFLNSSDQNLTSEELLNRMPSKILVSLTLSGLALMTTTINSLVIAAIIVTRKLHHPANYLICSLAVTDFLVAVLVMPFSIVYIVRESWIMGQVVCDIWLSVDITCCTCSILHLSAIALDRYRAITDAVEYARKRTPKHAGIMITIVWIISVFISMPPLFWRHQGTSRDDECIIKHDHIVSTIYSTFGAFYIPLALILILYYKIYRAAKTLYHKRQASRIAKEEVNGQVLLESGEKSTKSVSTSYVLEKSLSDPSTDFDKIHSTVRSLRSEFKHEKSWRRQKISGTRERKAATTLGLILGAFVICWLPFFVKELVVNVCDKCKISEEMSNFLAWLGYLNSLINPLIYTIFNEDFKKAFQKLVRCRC

5-HT1B receptor = target: T4, 5-HT1B receptor (Homo sapiens, UniProt P28222); assay: radioligand competition, CHO-K1 membranes; format: binding; conditions: radioligand listed in supplement Table S1
T4 construct: gene HTR1B; full-length human recombinant receptor in CHO-K1 cells (Ogeda); crude membranes
T4 sequence (P28222 whole entry): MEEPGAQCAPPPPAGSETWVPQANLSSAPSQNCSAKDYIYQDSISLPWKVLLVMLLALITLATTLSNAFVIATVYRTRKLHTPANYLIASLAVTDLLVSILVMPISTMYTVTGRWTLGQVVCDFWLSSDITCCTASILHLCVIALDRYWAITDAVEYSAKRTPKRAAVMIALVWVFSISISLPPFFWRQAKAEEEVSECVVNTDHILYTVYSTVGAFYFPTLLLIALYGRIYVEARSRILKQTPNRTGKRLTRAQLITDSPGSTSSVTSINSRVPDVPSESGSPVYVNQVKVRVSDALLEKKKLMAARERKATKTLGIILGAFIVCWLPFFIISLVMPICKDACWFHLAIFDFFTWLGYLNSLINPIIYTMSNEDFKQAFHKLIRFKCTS
Text: radioligand competition, CHO-K1 membranes on 5-HT1B receptor

5-HT1F receptor [4] = target: T3, 5-HT1F receptor; assay: radioligand competition, CHO-K1 membranes; format: binding; conditions: radioligand listed in supplement Table S1
5-HT1A receptor = target: T5, 5-HT1A receptor (Homo sapiens, UniProt P08908); assay: radioligand competition, CHO-K1 membranes; format: binding; conditions: radioligand listed in supplement Table S1
T5 construct: gene HTR1A; full-length human recombinant receptor in CHO-K1 cells (Ogeda); crude membranes
T5 sequence (P08908 1-422): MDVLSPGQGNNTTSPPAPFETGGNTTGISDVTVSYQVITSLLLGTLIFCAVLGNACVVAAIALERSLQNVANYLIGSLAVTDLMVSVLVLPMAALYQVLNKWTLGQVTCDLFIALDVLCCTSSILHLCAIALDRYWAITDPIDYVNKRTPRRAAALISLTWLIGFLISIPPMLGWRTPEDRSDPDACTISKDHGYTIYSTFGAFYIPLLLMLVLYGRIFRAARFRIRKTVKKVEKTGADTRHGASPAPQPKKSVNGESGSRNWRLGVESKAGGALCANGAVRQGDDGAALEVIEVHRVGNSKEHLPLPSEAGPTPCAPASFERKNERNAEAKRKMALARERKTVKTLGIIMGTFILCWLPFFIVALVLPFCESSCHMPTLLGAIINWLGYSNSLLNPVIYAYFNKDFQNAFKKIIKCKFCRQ
Text: radioligand competition, CHO-K1 membranes on 5-HT1A receptor

5-ht1E receptor [5] = target: T6, 5-ht1E receptor (Homo sapiens, UniProt P28566); assay: radioligand competition, CHO-K1 membranes; format: binding
T6 construct: gene HTR1E; full-length human recombinant receptor in CHO-K1 cells (Ogeda); crude membranes
T6 sequence (P28566 whole entry): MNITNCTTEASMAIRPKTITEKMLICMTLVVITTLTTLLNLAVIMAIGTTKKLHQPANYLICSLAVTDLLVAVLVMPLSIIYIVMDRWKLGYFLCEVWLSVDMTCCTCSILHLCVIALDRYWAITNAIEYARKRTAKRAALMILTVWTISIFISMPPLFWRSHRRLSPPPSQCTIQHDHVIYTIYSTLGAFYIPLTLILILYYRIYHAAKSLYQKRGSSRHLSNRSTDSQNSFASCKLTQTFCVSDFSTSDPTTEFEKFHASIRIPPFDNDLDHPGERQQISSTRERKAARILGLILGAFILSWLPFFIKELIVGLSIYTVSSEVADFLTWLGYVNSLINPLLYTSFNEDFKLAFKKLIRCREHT
Text: radioligand competition, CHO-K1 membranes on 5-ht1E receptor

5-HT2B receptor = target: T7, 5-HT2B receptor (Homo sapiens, UniProt P41595); assay: radioligand competition, CHO-K1 membranes; format: binding
T7 construct: gene HTR2B; full-length human recombinant receptor in CHO-K1 cells (Ogeda); crude membranes
T7 sequence (P41595 whole entry): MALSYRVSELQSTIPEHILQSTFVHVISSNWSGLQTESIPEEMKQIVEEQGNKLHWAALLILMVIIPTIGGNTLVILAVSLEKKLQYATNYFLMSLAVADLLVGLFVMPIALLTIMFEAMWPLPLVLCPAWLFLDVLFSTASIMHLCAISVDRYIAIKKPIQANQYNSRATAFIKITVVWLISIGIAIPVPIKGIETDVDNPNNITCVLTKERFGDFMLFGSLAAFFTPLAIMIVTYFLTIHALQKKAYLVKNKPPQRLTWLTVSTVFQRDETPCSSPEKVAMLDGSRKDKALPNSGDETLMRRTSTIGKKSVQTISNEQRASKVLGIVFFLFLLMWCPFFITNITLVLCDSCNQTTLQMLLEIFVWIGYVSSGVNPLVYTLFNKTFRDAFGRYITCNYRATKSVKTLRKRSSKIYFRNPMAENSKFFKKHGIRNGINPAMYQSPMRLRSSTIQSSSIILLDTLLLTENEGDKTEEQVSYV
Text: radioligand competition, CHO-K1 membranes on 5-HT2B receptor

5-ht1E receptor [6] = target: T6, 5-ht1E receptor; assay: biochemical; format: CHO-K1 membranes; design: radioligand competition binding on cell membranes, filtration and TopCount scintillation counting; conditions: radioligand displacement; read-out: 5‐ht1E / pIC50 (converted)
Experimental: Competition binding was performed in duplicate in the wells of a 96‐well plate containing binding buffer (optimized for each receptor), cell membrane extracts (approximately 20,000 cells distributed in the 96‐well plate), radiotracer, and test agonist. Non‐specific binding was determined by co‐incubation with 200‐fold excess of competitor. Cells were incubated and exposed to varying concentrations (1 pM to 10 μM) of a range of displacer agonists (see below). The samples were incubated in a final volume of 0.1 ml and then filtered over Unifilter plates (Perkin Elmer, Massachusetts, USA) pretreated for 2 hr to limit tracer non‐specific binding. Filters were washed five times with 0.5 ml of ice‐cold washing buffer (tris 50 mM pH 7.4) and 50 μl of Microscint 20 (Perkin Elmer) were added to each filter. The plates were incubated 15 min at room temperature on an orbital shaker and then counted with a TopCount™ (Perkin Elmer) for 1 min per well. […] Additionally, the reference values obtained were compared to historical values obtained from the same receptor and used to validate the experimental session. […] For the new assays developed in this study (i.e., 5‐ht1E receptor), the two independent pIC50 determined must be concordant with a 1 log unit interval for the assays to be validated.

5-ht1E receptor [7] = target: T6, 5-ht1E receptor; assay: cell-based; design: species or system CHO-K1; cAMP HTRF agonist assay, Gi coupled receptors, inhibition of stimulated cAMP; conditions: cAMP
Experimental: Concentration–response curves were performed in parallel with the agonists. […] After addition of the lysis buffer and 1‐hr incubation, cAMP concentrations were estimated according to the manufacturer specification with the HTRF kit (Cisbio International, Codelet, France). In brief, increasing concentrations of agonists were added to stably transfected cells in buffer in an Optiplate (PerkinElmer Life Sciences, Massachusetts, USA). The plates were incubated, and cells were then lysed by the addition of HTRF reagents (cAMP‐Cryptate and anti‐cAMP‐d2 reagents) and diluted in lysis buffer, followed by incubation at room temperature. […] Additionally, the reference values obtained were compared to historical values obtained from the same receptor and used to validate the experimental session. […] For the new assays developed in this study (i.e., 5‐ht1E receptor), the two independent pIC50 determined must be concordant with a 1 log unit interval for the assays to be validated.

5-ht1E receptor [8] = target: T6, 5-ht1E receptor; assay: biochemical; format: CHO-K1 membranes; design: GTPγS agonist functional assay; conditions: GTPγS
Text: Additionally, the reference values obtained were compared to historical values obtained from the same receptor and used to validate the experimental session. […] For the new assays developed in this study (i.e., 5‐ht1E receptor), the two independent pIC50 determined must be concordant with a 1 log unit interval for the assays to be validated.

[9] = radioligand listed in supplement Table S1

`CN(C)CCc1c[nH]c2ccc(Cn3cncn3)cc12` [Rizatriptan benzoate] was tested, and the pIC50 (5-HT2A receptor [1]) was less than 5.00, the pKi (5-HT2A receptor [1]) was less than 5.00 and the pEC50 (5-HT2A receptor [2]) was less than 5.00.
In the case of `CN(C)CCc1c[nH]c2ccc(CS(=O)(=O)N3CCCC3)cc12` [Almotriptan malate], the “5-HT1D / pKi” value (5-HT1D receptor) was 8.26 -log M, the “5-HT1F / cAMP” value (5-HT1F receptor [3]) was 7.79 -log M and the “5-HT1B / pKi” value (5-HT1B receptor) was 8.45 -log M. For the same compound, the “5-HT1F / pKi” value (5-HT1F receptor [4]) was 7.57 -log M, the “5-HT1A / pKi” value (5-HT1A receptor) was 6.73 -log M and the “5-ht1E / pKi” value (5-ht1E receptor [5]; [9]) was < 5 -log M. For the same compound, the “/ pKi” value (5-HT2B receptor; [9]) was < 5 -log M, the IC50 (5-HT2A receptor [1]) was greater than 10 µM and the Ki (5-HT2A receptor [1]) was greater than 10 µM. For the same compound, the EC50 (5-HT2A receptor [2]) was greater than 10 µM.
Work on `CNS(=O)(=O)Cc1ccc2[nH]cc(CCN(C)C)c2c1` [Sumatriptan succinate] yielded a Ki (5-ht1E receptor [5]; read-out: 5-ht1E / pKi (converted)) of 1.91 µM, a Ki (5-HT2B receptor; read-out: / pKi (converted)) greater than 10 µM and an IC50 (5-ht1E receptor [6]) of 3.8 µM. The pEC50 (5-ht1E receptor [7]) was 5.99 and the pEC50 (5-ht1E receptor [8]) was 5.79.
`CN(C)CCc1c[nH]c2ccc(C[C@H]3COC(=O)N3)cc12` [Zolmitriptan] gave an IC50 (5-HT2A receptor [1]) greater than 10 µM, a Ki (5-HT2A receptor [1]) greater than 10 µM and an EC50 (5-HT2A receptor [2]) greater than 10 µM.
`c1ccc2c(c1)CC[C@H](CNCCCNC1=NCCCN1)O2` [Alniditan dihydrochloride] gave an IC50 (5-HT2A receptor [1]) greater than 10 µM and an EC50 (5-HT2A receptor [2]) greater than 10 µM.
In the case of `CN1CCC(c2c[nH]c3ccc(NC(=O)c4ccc(F)cc4)cc23)CC1` [LY334370 hydrochloride], the IC50 (5-HT2A receptor [1]) was 7.76 µM and the EC50 (5-HT2A receptor [2]) was greater than 10 µM.
